Measurements: US9145376B2, “Quinazolinone inhibitors of dynein” (The Rockefeller University, priority 2011, dated 2015)

Key:
[1] = system: Hh pathway (Gli-responsive firefly luciferase reporter in Shh-LIGHT2 cells); test: Shh-LIGHT2 assay for Hh pathway activity; format: cell-based; details: 10% Shh-conditioned medium, 24 hours, firefly/Renilla luciferase ratio
Description: Shh-N-conditioned medium was prepared as described by Chen et al., Proc. Natl. Acad. Sci. U.S.A. 99, 14071 (2002). Shh-LIGHT2 cells [J. Taipale et al., Nature 406, 1005 (2000)], an NIH-3T3-based cell line containing a stably integrated Gli-responsive firefly luciferase reporter and a constitutive thymidine kinase promoter-driven Renilla luciferase expression construct (pRLTK, Promega), were cultured in DMEM containing 10% calf serum. 100 U/mL penicillin, and 0.1 mg/mL streptomycin. The cells were seeded into 96-well plates at a density of 30,000 cells/well, and the following day they were treated with individual compounds or DMSO in DMEM containing 0.5% calf serum, 10% Shh-conditioned medium, and the antibiotics described above. After being cultured for another 24 hours, the cells were lysed and their firefly and Renilla luciferase activities were determined using, a dual luciferase reporter kit (Promega) and a microplate luminometer (Veritas). Average values representing the firefly luciferase/Renilla luciferase ratio from triplicate samples were used to construct dose response profiles for each compound. Dose-response data from three separate experiments were independently curve-fitted with a variable slope, sigmoidal dose-response algorithm using Prism software, and the resulting IC50 values were used to generate an average IC50 for each compound.

[2] = system: primary cilia of Shh-EGFP cells; test: Quantitative assessment of ciliogenesis (Arl13b staining, cilia size); format: cell-based; details: 24 hours, read-out: Primary cilia size (percent of DMSO control at a 30 μM dose)
Description: Shh-EGFP cells [J. Hyman et al., Proc. Natl. Acad. Sci. U.S.A., (2009)], an NIH-3T3-based cell line containing a stably integrated Gli-responsive enhanced green fluorescent protein reporter, were maintained in DMEM containing 10% calf serum, 100 U/mL penicillin, and 0.1 mg/mL streptomycin. The cells were seeded into 24-well plates containing poly-D-lysine-coated 12-mm glass coverslips at a density of 30,000 cells/well and cultured for 36 hours. The cells were transferred into DMEM containing 0.5% calf serum, the antibiotics described above, and either individual compounds at a 30 μM concentration or 0.3% DMSO. After being cultured for another 24 hours, the cells were fixed in PBS containing 4% paraformaldehyde for 10 minutes at room temperature, washed 3×5 minutes with PBS, permeabilized with PBS containing 0.3% Triton X-100 for 5 minutes, and blocked overnight at 4° C. with PBS containing 5% normal goat serum, 0.1% Triton X-100, and 0.05% sodium azide. The coverslips were then incubated for 90 minutes at room temperature with blocking buffer containing rabbit polyclonal anti-Arl 13b antibody (1:3000 dilution), washed 4×5 minutes with PBS containing 0.1% Triton X-100, and incubated for 60 minutes with blocking buffer containing Alexa Fluor 488-conjugated goat polyclonal anti-rabbit IgG antibody (1:300 dilution; Invitrogen, A-11034). Following this secondary antibody incubation, nuclei were stained by incubating the cells 2×10 minutes with PBS containing 0.1% Triton X-100 and […] 4′,6-diamidino-2-phenylindole (DAPI) and washing them 2×5 minutes with PBS. The coverslips were subsequently mounted onto slides using Prolong Gold Antifade Reagent (Invitrogen) and imaged using an HC Plan Apochromat CS 20×/0.70 NA oil immersion objective on a Leica DMI6000B compound microscope equipped with a Photometric CoolSNAP HQ CCD camera and Metamorph software (Molecular Devices). Images of Arl13b staining in DMSO-treated cells were manually examined to establish a minimum threshold value for cilia staining intensity. ImageJ software was then used to define objects consisting of two or more adjacent pixels with a signal intensity equal to or greater than this threshold value, and the total object area within an individual image was used to estimate the total pixel area of primary cilia. Corresponding images of DAPI staining were processed in parallel using CellProfiler software to establish the number of nuclei per image. The average cilia size per cell within an individual image was then determined by dividing the total ciliary pixel area by the number of nuclei. Ten individual images, each containing approximately 150 cells. were used to quantify the average cilia size for each experimental condition.
Shh-EGFP cells, an NIH-3T3-based cell line containing a stably integrated Gli-responsive enhanced green fluorescent protein reporter, were maintained in DMEM containing 10% (v/v) calf serum, 100 U/mL penicillin, and 0.1 mg/mL streptomycin. The cells were seeded into 24-well plates containing poly-D-lysine-coated 12-mm glass coverslips at a density of 30,000 cells/well and cultured for 36 hours. The cells were transferred into DMEM containing 0.5% (v/v) calf serum, the antibiotics described above, and either individual dihydroquinazolinones at a 30 μM concentration or an equivalent amount of DMSO vehicle (0.3%, v/v). After being cultured for another 24 hours, the cells were fixed in PBS containing 4% (w/v) paraformaldehyde for 10 min at room temperature, washed 3×5 min with PBS, permeabilized with PBS containing 0.3% (v/v) Triton X-100 for 5 min, and blocked overnight at 4° C. with PBS containing 5% (v/v) normal goat serum, 0.1% (v/v) Triton X-100, and 0.05% (w/v) sodium azide. […]

basal cell carcinoma = details: 33 human patients; cited from earlier work
medulloblastoma = details: human patient; cited from earlier work
[3] = system: Gli3 processing in Shh-EGFP cells; test: Quantitative assessment of Hh ligand-dependent Gli3 processing; format: cell-based; details: Shh-EGFP cells stimulated with Shh-N, 16 hours
Description: Shh-EGFP cells were seeded into 12-well plate at a density of 120,000 cells/well in DMEM containing 10% calf serum. 100 U/mL penicillin, and 0.1 mg/mL streptomycin. After being cultured for 24 hours, the cells were transferred into DMEM containing 0.5% calf serum, 10% Shh-conditioned medium, the antibiotics described above, and either individual compounds or DMSO. The cells were cultured for an additional 16 hours, washed with PBS, and then lysed by incubation on ice with SDS-PAGE loading buffer composed of 8% glycerol, 20 mM Tris-HCl, pH 6.8, 2% SDS, 100 mM DTT, 1 mM PMSF, 20 mM NaF, 2 mM Na3VO4, and an EDTA-free protease inhibitor cocktail (Roche). The lysed samples were heated to 100° C. for 7 minutes, loaded onto 3-8% Criterion XT Tris-Acetate polyacrylamide gels (Bio-Rad), electrophoresed in XT Tricine buffer (Bio-Rad), and transferred onto PVDF membranes. The membranes were dehydrated with methanol and probed overnight at 4° C. with goat polyclonal anti-Gli3 antibody (0.4 μg/mL: R & D Systems, AF3690) in PBS containing 4% non-fat dry milk and 0.1% Tween-20 (immunoblot blocking buffer). The blots were then washed 4×1 minutes in PBS and incubated with horseradish peroxidase-conjugated bovine polyclonal anti-goat IgG antibody (0.04 μg/mL, Jackson ImmunoResearch, 805-035-180) in immunoblot blocking buffer for 1 hour at room temperature. The membranes were next washed 4×1 minutes in PBS and visualized using SuperSignal West Dura Extended Duration substrate (Thermo Scientific) and a ChemiDoc XRS imaging system (Bio-Rad). Band intensities of Gli3FL and Gli3R where quantified using Quantity One software (Bio-Rad), and five independent experiments were used to determine the average Gli3FL/Gli3R ratio for each compound.

Row | Compound | IC50 [1] | other results
1 | N#C/C(C(=O)c1ccc(Cl)c(Cl)c1)=C1\NC(=O)c2ccccc2N1 [Example 18] | 3 µM | activity at 30 µM [2]: 16%
2 | N#C/C(C(=O)c1cccc(Cl)c1)=C1\NC(=O)c2ccccc2N1 [Example 17, 3-(3-chlorophenyl)-3-oxo-2-(4-oxo-3,4-dihydroquinazolin-2 (1H)-ylidene)propanenitrile] | 5.5 µM | activity at 30 µM [2]: 68%
3 | Cc1ccc(C(=O)/C(C#N)=C2/NC(=O)c3ccccc3N2)cc1 [Example 5] | 15 µM | –
4 | O=C(/C=C1/NC(=O)c2ccccc2N1)c1ccc(Cl)cc1Cl [Example 23] | 4.4 µM | activity at 30 µM [2]: 70%
5 | N#C/C(C(=O)c1ccccc1F)=C1\NC(=O)c2ccccc2N1 [Example 11] | 30 µM | –
6 | N#C/C(=C\c1ccc(Cl)cc1Cl)C1NC(=O)c2ccccc2N1 (stereo not drawn) [Example 24] | > 50 µM | activity at 30 µM [2]: 104%
7 | N#C/C(C(=O)c1cccc2ccccc12)=C1\NC(=O)c2ccccc2N1 [Example 21] | 20 µM | –
8 | N#C/C(C(=O)c1ccccc1Br)=C1\NC(=O)c2ccccc2N1 [Example 12] | 15 µM | –
9 | Cc1ccccc1C(=O)/C(C#N)=C1/NC(=O)c2ccccc2N1 [Example 14] | 30 µM | –
10 | COc1ccc2c(c1)N/C(=C(/C#N)C(=O)c1ccc(Cl)cc1Cl)NC2=O [Example 33] | 15 µM | –
11 | N#C/C(C(=O)c1ccccc1I)=C1\NC(=O)c2ccccc2N1 [Example 13] | 20 µM | –
12 | N#C/C(C(=O)c1ccccc1Cl)=C1\NC(=O)c2ccccc2N1 [Example 10, 3-(2-chlorophenyl)-3-oxo-2-(4-oxo-3,4-dihydroquinazolin-2(1H)-ylidene)propanenitrile] | 25 µM | activity at 30 µM [2]: 93%
13 | N#C/C(C(=O)c1ccc(Cl)cc1Cl)=C1\NC(=O)c2cc(C#CCN)ccc2N1 [Example 29] | 20 µM | –
14 | Cc1cccc2c1C(=O)N/C(=C(\C#N)C(=O)c1ccc(Cl)cc1Cl)N2 [Example 26] | 10 µM | –
15 | N#C/C(C(=O)c1ccc(Br)cc1)=C1\NC(=O)c2ccccc2N1 [Example 3] | 5 µM | –
16 | COc1ccc(C(=O)/C(C#N)=C2/NC(=O)c3ccccc3N2)cc1 [Example 8] | 30 µM | –
17 | COc1ccccc1C(=O)/C(C#N)=C1/NC(=O)c2ccccc2N1 [Example 15] | > 30 µM | –
18 | CS(=O)(=O)c1ccc(C(=O)Nc2ccc(Cl)c(-c3ccccn3)c2)c(Cl)c1 [GDC-0449] | – | tumor response, basal cell carcinoma (basal cell carcinoma): clinically significant response; tumor response, medulloblastoma (medulloblastoma): regression of medulloblastoma
19 | CC(=O)NCC#Cc1ccc2c(c1)C(=O)N/C(=C(\C#N)C(=O)c1ccc(Cl)cc1Cl)N2 [Example 30] | 30 µM | –
20 | Cc1cccc(C(=O)/C(C#N)=C2/NC(=O)c3ccccc3N2)c1 [Example 22] | 5 µM | –
21 | N#C/C(C(=O)c1cc(Cl)cc(Cl)c1)=C1\NC(=O)c2ccccc2N1 [Example 19] | 3 µM | activity at 30 µM [2]: 65%
22 | N#C/C(C(=O)c1ccc(I)cc1)=C1\NC(=O)c2ccccc2N1 [Example 4] | 4.5 µM | –
23 | COc1cc(C(=O)/C(C#N)=C2/NC(=O)c3ccccc3N2)cc(OC)c1OC [Example 20] | > 30 µM | –
24 | CC(C)Cc1ccc(C(=O)/C(C#N)=C2/NC(=O)c3ccccc3N2)cc1 [Example 6] | 6.5 µM | –
25 | N#C/C(C(=O)c1ccc(Cl)cc1Cl)=C1\NC(=O)c2cc(Cl)ccc2N1 [Example 27, 2-(6-chloro-4-oxo-3,4-dihydroquinazolin-2(1H)-ylidene)-3-(2,4-dichlorophenyl)-3-oxopropanenitrile] | 6.1 µM | Gli3FL/Gli3R ratio [3]: altered the Gli3FL/Gli3R ratio; Shh-N-dependent Gli3FL phosphorylation [3]: reduced; activity at 30 µM [2]: 11%
26 | N#C/C(C(=O)c1ccc([N+](=O)[O-])cc1)=C1\NC(=O)c2ccccc2N1 [Example 9] | 25 µM | –
27 | N#C/C(C(=O)c1ccc(Cl)cc1Cl)=C1\NC(=O)c2c(Cl)cccc2N1 [Example 25, 2-(5-chloro-4-oxo-3,4-dihydroquinazolin-2(1H)-ylidene)-3-(2,4-dichlorophenyl)-3-oxo-propanenitrile] | 11 µM | Gli3FL/Gli3R ratio [3]: altered the Gli3FL/Gli3R ratio; Shh-N-dependent Gli3FL phosphorylation [3]: reduced; activity at 30 µM [2]: 32%
28 | N#C/C(C(=O)c1ccc(Cl)cc1Cl)=C1\NC(=O)c2cc(I)ccc2N1 [Example 28] | 6 µM | –
29 | N#C/C(C(=O)c1ccc(Cl)cc1Cl)=C1\NC(=O)c2ccc(I)cc2N1 [Example 32] | 12 µM | –
